Data on 22 compounds can be found in US20200131142A1, “FARNESOID X RECEPTOR AGONISTS AND USES THEREOF” (Metacrine, Inc., priority 2017, published 2020).

What is called EC50 is the concentration giving half of the maximal effect. Read a high EC50 as weaker potency.

Where only a bound is given, the exact number is not on record here.

For the experiment, the target named is T1, hFXR (Homo sapiens, UniProt Q96RI1).
T1 construct: expressed in transfected cells; host or cells: CV-1 cells
T1 sequence (Q96RI1 1-486): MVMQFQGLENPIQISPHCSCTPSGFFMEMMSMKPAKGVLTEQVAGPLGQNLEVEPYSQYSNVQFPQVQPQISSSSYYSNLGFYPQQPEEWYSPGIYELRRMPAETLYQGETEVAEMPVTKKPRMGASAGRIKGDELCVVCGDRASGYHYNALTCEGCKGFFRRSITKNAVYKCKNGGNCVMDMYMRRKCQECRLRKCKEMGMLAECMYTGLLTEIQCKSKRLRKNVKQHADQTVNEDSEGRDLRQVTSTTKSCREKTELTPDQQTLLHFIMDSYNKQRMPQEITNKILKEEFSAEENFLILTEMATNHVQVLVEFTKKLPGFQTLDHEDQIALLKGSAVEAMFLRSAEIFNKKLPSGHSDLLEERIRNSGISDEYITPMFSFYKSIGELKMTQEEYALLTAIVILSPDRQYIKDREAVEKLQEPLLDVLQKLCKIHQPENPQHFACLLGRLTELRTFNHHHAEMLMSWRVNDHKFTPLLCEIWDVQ
T1 sequence (P19793 1-462 partner): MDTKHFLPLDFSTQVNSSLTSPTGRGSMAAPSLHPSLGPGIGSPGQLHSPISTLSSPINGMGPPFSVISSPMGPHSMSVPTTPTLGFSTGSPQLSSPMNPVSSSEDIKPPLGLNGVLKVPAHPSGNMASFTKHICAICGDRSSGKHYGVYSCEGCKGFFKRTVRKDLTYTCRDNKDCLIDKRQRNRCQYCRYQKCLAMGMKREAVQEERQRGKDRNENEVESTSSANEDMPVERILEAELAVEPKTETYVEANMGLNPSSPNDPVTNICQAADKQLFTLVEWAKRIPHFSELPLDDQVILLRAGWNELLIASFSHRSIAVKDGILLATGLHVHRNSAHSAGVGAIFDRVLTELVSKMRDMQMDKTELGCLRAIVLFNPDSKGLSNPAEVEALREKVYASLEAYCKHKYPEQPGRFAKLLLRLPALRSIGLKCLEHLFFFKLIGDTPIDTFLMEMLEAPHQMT
The experiment in a line: In Vitro FXR Assay (TK): hFXR/hRXR TK-ECRE-luc reporter in transfected CV-1 cells. The format is cell-based. To be noted: 18 hrs incubation, luminescence, compounds with maximum efficacy <25% of the Fexarmine control classified as '+'. Put shortly: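 Transactivation is scored as luminescence in CV-1 cell lysates. The cells, co-transfected with hFXR/hRXR and a TK-ECRE-luc reporter, are exposed to DMSO-diluted compounds for 18 h.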
In the case of `COc1ccc([C@H]2CC[C@H](CN(c3cc(-c4cnc(C(C)C)s4)ccn3)C(=O)[C@H]3CC[C@H](O)CC3)CC2)nc1C` [Compound 9.29, trans-4-Hydroxy-N-(4-(2-isopropylthiazol-5-yl)pyridin-2-yl)-N-((trans-4-(5-methoxy-6-methylpyridin-2-yl)cyclohexyl)methyl)cyclohexanecarboxamide], the EC50 was ≤ 250 nM.

Regarding `CCn1cc([C@H]2CC[C@H](CN(c3cccc(-c4cnc(C5CC5)s4)c3)C(=O)[C@H]3CC[C@H](O)CC3)CC2)cn1` [Compound 9.18, trans-N-(3-(2-Cyclopropylthiazol-5-yl)phenyl)-N-((trans-4-(1-ethyl-1H-pyrazol-4-yl)cyclohexyl)methyl)-4-hydroxycyclohexanecarboxamide], the EC50 is ≤ 250 nM.

As for `COc1ccc([C@H]2CC[C@H](CN(c3cccc(-c4cnc(C(C)C)s4)c3)C(=O)[C@H]3CC[C@H](O)CC3)CC2)cc1C` [Compound 7.06], the EC50 is ≤ 250 nM.

In turn, `COc1ccc([C@H]2CC[C@H](CN(c3cccc(-c4cnc(C(N)=O)s4)c3)C(=O)[C@H]3CC[C@H](O)CC3)CC2)cc1C` [Compound 7.25, 5-(3-(trans-4-Hydroxy-N-((trans-4-(4-methoxy-3-methylphenyl)cyclohexyl)methyl)cyclohexanecarboxamido)phenyl)thiazole-2-carboxamide] had an EC50 of 250 to 1000 nM.

With `COc1ccc([C@H]2CC[C@H](CN(c3cccc(-c4cnc(C5CC5)s4)c3)C(=O)[C@H]3CC[C@H](O)CC3)CC2)cc1C` [Compound 7, trans-N-(3-(2-Cyclopropylthiazol-5-yl)phenyl)-4-hydroxy-N-((trans-4-(4-methoxy-3-methylphenyl)cyclohexyl)methyl) cyclohexanecarboxamide], the 50% effective concentration (EC50) was ≤ 250 nM.

For `COc1ccc([C@H]2CC[C@H](CN(c3cccc(-c4cnc(C5CC5)s4)c3)C(=O)[C@H]3CC[C@H](O)CC3)CC2)nc1C#N` [Compound 9.21, trans-N-((trans-4-(6-Cyano-5-methoxypyridin-2-yl)cyclohexyl)methyl)-N-(3-(2-cyclopropylthiazol-5-yl)phenyl)-4-hydroxycyclohexanecarboxamide], the EC50 is ≤ 250 nM.

`Cn1ccc2cc([C@H]3CC[C@H](CN(c4cccc(-c5cnc(C6CC6)s5)c4)C(=O)[C@H]4CC[C@H](O)CC4)CC3)ncc21` [Compound 9.17, trans-N-(3-(2-Cyclopropylthiazol-5-yl)phenyl)-4-hydroyx-N-((trans-4-(1-methyl-1H-pyrrolo[2,3-c]pyridin-5-yl)cyclohexyl)methyl)cyclohexanecarboxamide] displayed an EC50 of 250 to 1000 nM.

Turning to `CCOc1ncc(-c2cccc(N(C[C@H]3CC[C@H](c4ccc(OC)c(C)c4)CC3)C(=O)[C@H]3CC[C@H](O)CC3)c2)s1` [Compound 7.16, trans-N-(3-(2-Ethoxythiazol-5-yl)phenyl)-4-hydroxy-N-((trans-4-(4-methoxy-3-methylphenyl)cyclohexyl)methyl) cyclohexanecarboxamide], the EC50 was ≤ 250 nM.

Regarding `COc1ccc([C@H]2CC[C@H](CN(c3cccc(-c4cnc(C5CC5)s4)c3)C(=O)[C@H]3CC[C@H](N(C)C)CC3)CC2)cc1C` [Compound 13, trans-N-(3-(2-Cyclopropylthiazol-5-yl)phenyl)-4-(dimethylamino)-N-((trans-4-(4-methoxy-3-methylphenyl)cyclohexyl)methyl) cyclohexanecarboxamide], the EC50 is ≥ 1000 nM.

Consider `COc1ncc(-c2cccc(N(C[C@H]3CC[C@H](c4ccc(OC)c(C)c4)CC3)C(=O)[C@H]3CC[C@@H](O)CC3)c2)s1` [Compound 5, cis-4-Hydroxy-N-((trans-4-(4-methoxy-3-methylphenyl)cyclohexyl)methyl)-N-(3-(2-methoxythiazol-5-yl)phenyl)cyclohexanecarboxamide], for which the EC50 was ≤ 250 nM.

As to `CC#Cc1ncc(-c2cccc(N(C[C@H]3CC[C@H](c4ccc(OC)c(C)c4)CC3)C(=O)[C@H]3CC[C@H](O)CC3)c2)s1` [Compound 7.21, trans-4-Hydroxy-N-((trans-4-(4-methoxy-3-methylphenyl)cyclohexyl)methyl)-N-(3-(2-(prop-1-yn-1-yl)thiazol-5-yl)phenyl)cyclohexanecarboxamide], the EC50 was ≤ 250 nM.

Regarding `COc1ccc([C@H]2CC[C@H](CN(c3cccc(-c4sc(C)nc4C)c3)C(=O)[C@H]3CC[C@H](O)CC3)CC2)cc1C` [Compound 7.04, trans-N-(3-(2,4-Dimethylthiazol-5-yl)phenyl)-4-hydroxy-N-((trans-4-(4-methoxy-3-methylphenyl)cyclohexyl)methyl) cyclohexanecarboxamide], the half-maximal effective concentration (EC50) was ≥ 1000 nM.

As for `COc1ccc([C@H]2CC[C@H](CN(c3cccc(-c4cnc(C5CCC5)s4)c3)C(=O)[C@H]3CC[C@H](O)CC3)CC2)cc1C` [Compound 7.08, trans-N-(3-(2-Cyclobutylthiazol-5-yl)phenyl)-4-hydroxy-N-((trans-4-(4-methoxy-3-methylphenyl)cyclohexyl)methyl) cyclohexanecarboxamide], the EC50 was ≤ 250 nM.

For the compound `COc1ccc([C@H]2CC[C@H](CN(c3cccc(C#Cc4cncs4)c3)C(=O)[C@H]3CC[C@H](O)CC3)CC2)cc1C` [Compound 8.01, trans-4-Hydroxy-N-((trans-4-(4-methoxy-3-methylphenyl)cyclohexyl)methyl)-N-(3-(thiazol-5-ylethynyl)phenyl)cyclohexanecarboxamide], the 50% effective concentration (EC50) was ≤ 250 nM.

On to `COc1ccc([C@H]2CC[C@H](CN(c3cccc(NCc4nccs4)c3)C(=O)[C@H]3CC[C@H](O)CC3)CC2)cc1C` [Compound 15, trans-4-Hydroxy-N-((trans-4-(4-methoxy-3-methylphenyl)cyclohexyl)methyl)-N-(3-((thiazol-2-ylmethyl)amino)phenyl)cyclohexanecarboxamide], for which the EC50 is 250 to 1000 nM.

As to `COc1ccc([C@H]2CC[C@H](CN(c3cccc(-c4cnc(C5CC5)s4)c3)C(=O)[C@H]3CC[C@H](O)CC3)CC2)cc1S(C)(=O)=O` [Compound 9.26, trans-N-(3-(2-Cyclopropylthiazol-5-yl)phenyl)-4-hydroxy-N-((trans-4-(4-methoxy-3-(methylsulfonyl)phenyl)cyclohexyl)methyl) cyclohexanecarboxamide], the EC50 is ≤ 250 nM.

Consider `COc1ncc(-c2cccc(N(C[C@H]3CC[C@H](c4ccc(OC)c(C)c4)CC3)C(=O)[C@H]3CC[C@H](OC)CC3)c2)s1` [Compound 9.33, trans-4-Methoxy-N-((trans-4-(4-methoxy-3-methylphenyl)cyclohexyl)methyl)-N-(3-(2-methoxythiazol-5-yl)phenyl)cyclohexanecarboxamide], for which the EC50 was ≤ 250 nM.

As to `COc1ccc([C@H]2CC[C@H](CN(c3cccc(-c4cnc(N(C)C)s4)c3)C(=O)[C@H]3CC[C@H](O)CC3)CC2)cc1C` [Compound 7.13, trans-N-(3-(2-(Dimethylamino)thiazol-5-yl)phenyl)-4-hydroxy-N-((trans-4-(4-methoxy-3-methylphenyl)cyclohexyl)methyl) cyclohexanecarboxamide], the half-maximal effective concentration (EC50) is ≤ 250 nM.

For the compound `COc1ccc([C@H]2CC[C@H](CN(c3cccc(C#Cc4nccs4)c3)C(=O)[C@H]3CC[C@H](O)CC3)CC2)cc1C` [Compound 18, trans-4-Hydroxy-N-((trans-4-(4-methoxy-3-methylphenyl)cyclohexyl)methyl)-N-(3-(thiazol-2-ylethynyl)phenyl)cyclohexanecarboxamide], the EC50 was ≤ 250 nM.

As to `COc1ncc(-c2cccc(N(C[C@H]3CC[C@H](c4ccc(N(C)C)nc4)CC3)C(=O)[C@H]3CC[C@H](O)CC3)c2)s1` [Compound 9.08, trans-N-((trans-4-(6-(Dimethylamino)pyridin-3-yl)cyclohexyl)mtehyl)-4-hydroxy-N-(3-(2-methoxythiazol-5-yl)phenyl)cyclohexanecarboxamide], the EC50 is ≤ 250 nM.

Regarding `COc1ncc(-c2cccc(N(C[C@H]3CC[C@H](c4ccc(OC)c(C)c4)CC3)C(=O)[C@H]3CC[C@H](OC(C)C)CC3)c2)s1` [Compound 9.34, trans-4-Isopropoxy-N-((trans-4-(4-methoxy-3-methylphenyl)cyclohexyl)methyl)-N-(3-(2-methoxythiazol-5-yl)phenyl)cyclohexanecarboxamide], the EC50 was ≤ 250 nM.

On to `COc1ccc([C@H]2CC[C@H](CN(c3cccc(OCc4nccs4)c3)C(=O)[C@H]3CC[C@H](O)CC3)CC2)cc1C` [Compound 16, trans-4-Hydroxy-N-((trans-4-(4-methoxy-3-methylphenyl)cyclohexyl)methyl)-N-(3-(thiazol-2-ylmethoxy)phenyl)cyclohexanecarboxamide], for which the EC50 is ≤ 250 nM.
